Experimental data as given in ChEMBL document CHEMBL5108023, “Design, synthesis and biological evaluation of rhein-piperazine-dithiocarbamate hybrids as potential anticancer agents” (Eur J Med Chem, 2022).
Converted amounts (≈) assume the structure as drawn.

How the values were obtained:
[1] = Selectivity index, ratio IC50 for antiproliferative activity against human WI-38 cells over IC50 for antiproliferative activity against human A549 cells; assay type: toxicity, cell-based; settings: WI-38 cells and A549 cells, read-out: Ratio IC50
WI-38 = assay: Antiproliferative activity against human WI-38 cells measured after 48 hrs by MTT assay; assay type: functional, cell-based; settings: WI-38, 48 h
A549 = assay: cells; settings: Homo sapiens, A549, 48 h
[2] = Acute toxicity in female ICR mouse assessed as pathological changes in heart at 6.25 to 50 mg/kg measured by H and E staining method; assay type: organism-based; settings: in vivo, dose 6.25-50 mg/kg
PC-9 [3] = assay: Induction of apoptosis in human PC-9 cells assessed as total apoptotic cells at 10 ug/ml measured after 48 hrs by AnnexinV-FITC/PI staining based flow cytometry (reference value: 6.99%); assay type: functional; settings: dose 10 µg/ml
SK-BR-3 = assay: Antiproliferative activity against human SK-BR-3 cells measured after 48 hrs by MTT assay; assay type: functional, cell-based; settings: SK-BR-3, 48 h
[4] = Acute toxicity in female ICR mouse assessed as changes in ALT level in liver at 6.25 to 50 mg/kg; assay type: organism-based; settings: in vivo, dose 6.25-50 mg/kg
Calu-1 = assay: Antiproliferative activity against human Calu-1 cells measured after 48 hrs by MTT assay; assay type: functional, cell-based; settings: Calu-1, 48 h
PC-9 [5] = assay: Induction of apoptosis in human PC-9 cells assessed as total apoptotic cells at 100 ug/ml measured after 48 hrs by AnnexinV-FITC/PI staining based flow cytometry (reference value: 6.99%); assay type: functional; settings: dose 100 µg/ml
NCI-H460 = assay: Antiproliferative activity against human NCI-H460 cells measured after 48 hrs by MTT assay; assay type: functional, cell-based; settings: NCI-H460, 48 h
786-0 = assay: Antiproliferative activity against human 786-0 cells measured after 48 hrs by MTT assay; assay type: functional, cell-based; settings: 786-0, 48 h
PC-9 [6] = assay: Induction of apoptosis in human PC-9 cells assessed as total apoptotic cells at 3 ug/ml measured after 48 hrs by AnnexinV-FITC/PI staining based flow cytometry (reference value: 6.99%); assay type: functional; settings: dose 3 µg/ml
[7] = Acute toxicity in female ICR mouse assessed as pathological changes in spleen at 6.25 to 50 mg/kg measured by H and E staining method; assay type: organism-based; settings: in vivo, dose 6.25-50 mg/kg
SK-OV-3 = assay: Antiproliferative activity against human SK-OV-3 cells measured after 48 hrs by MTT assay; assay type: functional, cell-based; settings: SK-OV-3, 48 h
Huh-7 = assay: Antiproliferative activity against human Huh-7 cells measured after 48 hrs by MTT assay; assay type: functional, cell-based; settings: Huh-7, 48 h
[8] = Acute toxicity in female ICR mouse assessed as pathological changes in liver at 6.25 to 50 mg/kg measured by H and E staining method; assay type: organism-based; settings: in vivo, dose 6.25-50 mg/kg
PC-9 [9] = assay: Antiproliferative activity against human PC-9 cells measured after 48 hrs by MTT assay; assay type: functional, cell-based; settings: PC-9, 48 h
[10] = Acute toxicity in female ICR mouse assessed as pathological changes in kidney at 6.25 to 50 mg/kg measured by H and E staining method; assay type: organism-based; settings: in vivo, dose 6.25-50 mg/kg
[11] = Acute toxicity in female ICR mouse assessed as changes in creatine kinase (CK) level in heart at 6.25 to 50 mg/kg; assay type: organism-based; settings: in vivo, dose 6.25-50 mg/kg
HeLa = assay: Antiproliferative activity against human HeLa cells measured after 48 hrs by MTT assay; assay type: functional, cell-based
[12] = Acute toxicity in female ICR mouse assessed as changes in AST level in liver at 6.25 to 50 mg/kg; assay type: organism-based; settings: in vivo, dose 6.25-50 mg/kg
[13] = Acute toxicity in female ICR mouse assessed as pathological changes in intestine at 6.25 to 50 mg/kg measured by H and E staining method; assay type: organism-based; settings: in vivo, dose 6.25-50 mg/kg
[14] = Acute toxicity in female ICR mouse assessed as pathological changes in lung at 6.25 to 50 mg/kg measured by H and E staining method; assay type: organism-based; settings: in vivo, dose 6.25-50 mg/kg
HCT-116 = assay: Antiproliferative activity against human HCT-116 cells measured after 48 hrs by MTT assay; assay type: functional, cell-based; settings: HCT-116, 48 h
[15] = Acute toxicity in female ICR mouse assessed as pathological changes in spleen at 25 mg/kg measured by H and E staining method; assay type: organism-based; settings: in vivo
[16] = Acute toxicity in female ICR mouse assessed as changes in ALT level in liver at 25 mg/kg; assay type: organism-based; settings: in vivo
[17] = Acute toxicity in female ICR mouse assessed as pathological changes in lung at 25 mg/kg measured by H and E staining method; assay type: organism-based; settings: in vivo
[18] = Acute toxicity in female ICR mouse assessed as changes in creatine kinase (CK) level in heart at 25 mg/kg; assay type: organism-based; settings: in vivo
[19] = Acute toxicity in female ICR mouse assessed as pathological changes in intestine at 25 mg/kg measured by H and E staining method; assay type: organism-based; settings: in vivo
[20] = Acute toxicity in female ICR mouse assessed as changes in AST level in liver at 25 mg/kg; assay type: organism-based; settings: in vivo
[21] = Acute toxicity in female ICR mouse assessed as pathological changes in liver at 25 mg/kg measured by H and E staining method; assay type: organism-based; settings: in vivo
[22] = Acute toxicity in female ICR mouse assessed as pathological changes in heart at 25 mg/kg measured by H and E staining method; assay type: organism-based; settings: in vivo
[23] = Acute toxicity in female ICR mouse assessed as pathological changes in kidney at 25 mg/kg measured by H and E staining method; assay type: organism-based; settings: in vivo

O=C1c2cccc(O)c2C(=O)c2c(O)cc(C(=O)N3CCN(C(=S)SCCCOc4ccccc4)CC3)cc21
selectivity ratio [1]: 1
IC50 (WI-38): > 100 µg/mL
IC50 (A549): > 100 µg/mL

COc1cccc2c1C(=O)c1c(O)c3c(c(O)c1C2=O)C[C@@](O)(C(=O)CO)C[C@@H]3O[C@H]1C[C@H](N)[C@H](O)[C@H](C)O1 [DOXORUBICIN]
IC50 (WI-38): 0.079 µg/mL (≈ 0.145 µM)
IC50 (A549): 0.665 µg/mL (≈ 1.22 µM)

Nc1ccn([C@@H]2O[C@H](CO)[C@@H](O)[C@@H]2O)c(=O)n1 [CYTARABINE]
selectivity ratio [1]: 2
IC50 (WI-38): > 100 µg/mL
IC50 (A549): 49.3 µg/mL (≈ 203 µM)

COC(=O)CSC(=S)N1CCN(C(=O)c2cc(O)c3c(c2)C(=O)c2cccc(O)c2C3=O)CC1
selectivity ratio [1]: 2
IC50 (WI-38): 67 µg/mL (≈ 134 µM)
IC50 (A549): 31 µg/mL (≈ 61.9 µM)

O=C1c2cccc(O)c2C(=O)c2c(O)cc(C(=O)N3CCN(C(=S)SCc4ccc(C(F)(F)F)cc4)CC3)cc21
selectivity ratio [1]: 1
IC50 (WI-38): > 100 µg/mL
IC50 (A549): > 100 µg/mL

Cc1ccc(CSC(=S)N2CCN(C(=O)c3cc(O)c4c(c3)C(=O)c3cccc(O)c3C4=O)CC2)cc1
selectivity ratio [1]: 1
IC50 (WI-38): > 100 µg/mL
IC50 (A549): > 100 µg/mL

O=C(CSC(=S)N1CCN(C(=O)c2cc(O)c3c(c2)C(=O)c2cccc(O)c2C3=O)CC1)OCc1ccccc1
selectivity ratio [1]: 3
IC50 (WI-38): > 100 µg/mL
IC50 (A549): 29.8 µg/mL (≈ 51.7 µM)

CCOC(=O)CCCSC(=S)N1CCN(C(=O)c2cc(O)c3c(c2)C(=O)c2cccc(O)c2C3=O)CC1
Activity [2]: Non-Toxic
Activity (PC-9 [3]): 28.97%
IC50 (SK-BR-3): 52 µg/mL (≈ 95.8 µM)
selectivity ratio [1]: 5
Activity [4]: Non-Toxic
IC50 (Calu-1): 23.8 µg/mL (≈ 43.8 µM)
IC50 (WI-38): 55.3 µg/mL (≈ 102 µM)
Activity (PC-9 [5]): 47.06%
IC50 (NCI-H460): 23 µg/mL (≈ 42.4 µM)
IC50 (786-0): 30.1 µg/mL (≈ 55.6 µM)
Activity (PC-9 [6]): 13.22%
Activity [7]: Non-Toxic
IC50 (SK-OV-3): 35.5 µg/mL (≈ 65.4 µM)
IC50 (A549): 10.9 µg/mL (≈ 20.1 µM)
IC50 (Huh-7): 23.8 µg/mL (≈ 44 µM)
Activity [8]: Non-Toxic
IC50 (PC-9 [9]): 10.8 µg/mL (≈ 19.9 µM)
Activity [10]: Non-Toxic
Activity [11]: Non-Toxic
IC50 (HeLa): 30.6 µg/mL (≈ 56.4 µM)
Activity [12]: Non-Toxic
Activity [13]: Non-Toxic
Activity [14]: Non-Toxic
IC50 (HCT-116): 25.9 µg/mL (≈ 47.7 µM)

O=C1c2cccc(O)c2C(=O)c2c(O)cc(C(=O)N3CCN(C(=S)SCc4ccccc4)CC3)cc21
selectivity ratio [1]: 1
IC50 (WI-38): 48.8 µg/mL (≈ 94 µM)
IC50 (A549): 78.6 µg/mL (≈ 152 µM)

O=C(O)c1cc(O)c2c(c1)C(=O)c1cccc(O)c1C2=O [RHEIN]
Activity [15]: Non-Toxic
Activity [16]: Non-Toxic
selectivity ratio [1]: 1
IC50 (WI-38): 92.3 µg/mL (≈ 325 µM)
Activity [17]: Non-Toxic
Activity [18]: Non-Toxic
Activity [19]: Non-Toxic
IC50 (A549): 77.1 µg/mL (≈ 271 µM)
Activity [20]: Non-Toxic
Activity [21]: Non-Toxic
Activity [22]: Non-Toxic
Activity [23]: Non-Toxic

O=C1c2cccc(O)c2C(=O)c2c(O)cc(C(=O)N3CCN(C(=S)SCc4ccc(Cl)cc4)CC3)cc21
IC50 (WI-38): 72.5 µg/mL (≈ 131 µM)
IC50 (A549): > 100 µg/mL

O=C1c2cccc(O)c2C(=O)c2c(O)cc(C(=O)N3CCN(C(=S)SCc4ccc(F)cc4)CC3)cc21
selectivity ratio [1]: 3
IC50 (WI-38): > 100 µg/mL
IC50 (A549): 36.4 µg/mL (≈ 67.8 µM)

C=CCSC(=S)N1CCN(C(=O)c2cc(O)c3c(c2)C(=O)c2cccc(O)c2C3=O)CC1
selectivity ratio [1]: 3
IC50 (WI-38): > 100 µg/mL
IC50 (A549): 40.5 µg/mL (≈ 86.5 µM)
